Measured values reported in ChEMBL document CHEMBL1143436 (Bioorg Med Chem Lett, 2008).
pIC50, pKi: −log10 of the molar value. The source made the active and inactive calls. The calls are words filed in the database; no cut-off is given here.

Tests used:
[1] = target: T1, Neurotensin receptor type 1 (Homo sapiens, UniProt P30989); assay: Antagonist activity at human NTS1 receptor expressed in CHOK1 cells assessed as inhibition of intracellular calcium elevation pretreated 30 mins before with SR-48692 by FLIPR assay; assay type: functional, cell-based, CHO-K1
T1 sequence (P30989 whole entry): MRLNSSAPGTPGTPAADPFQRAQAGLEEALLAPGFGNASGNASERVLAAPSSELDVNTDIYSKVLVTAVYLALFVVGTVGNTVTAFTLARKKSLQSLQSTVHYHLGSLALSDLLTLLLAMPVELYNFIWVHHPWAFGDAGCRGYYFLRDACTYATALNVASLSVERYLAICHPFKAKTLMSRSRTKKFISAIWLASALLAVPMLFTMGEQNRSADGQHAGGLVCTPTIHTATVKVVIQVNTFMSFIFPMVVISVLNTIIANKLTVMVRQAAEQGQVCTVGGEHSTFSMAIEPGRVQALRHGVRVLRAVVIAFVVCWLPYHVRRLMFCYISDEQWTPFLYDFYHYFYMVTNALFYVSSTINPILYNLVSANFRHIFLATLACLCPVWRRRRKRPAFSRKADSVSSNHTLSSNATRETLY

[2] = target: T1, Neurotensin receptor type 1; assay: Displacement of [3H]neurotensin from human NTS1 receptor expressed in CHOK1 cells after 60 mins by beta plate liquid scintillation counter; assay type: cell-based

pIC50 [1]	Activity ([2]; CHO-K1)	pKi [2]	Structure (SMILES)
8.42	inactive	–	CC(C)CC(NC(=O)OCC1c2ccccc2-c2ccccc21)C(=O)O (centres undefined)
8.42	–	6.26	CC(C)C[C@@H](NC(=O)Cn1ccc2cc(NS(=O)(=O)c3cccc4cccnc34)ccc21)C(=O)O
